# Columns and labels:
# Test in all cases: relative viability (nuclei count vs DMSO), 5 days (fraction); higher = more cells survive
# [1] = compound: CCN(CCO)CCCC(C)Nc1ccnc2cc(Cl)ccc12 [Hydroxychloroquine] + Nc1ncn([C@H]2C[C@H](O)[C@@H](CO)O2)c(=O)n1 [Decitabine] (partner 2 µM)
# Outline: (§1)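 Cells from lung cancer lines were seeded into 1536-well plates and, one day later, dosed by pin tool. Treatments were either a single drug or a fixed dose of an anchor drug with five library-drug doses (not always all listed) in √10 steps. After 5 days, nuclei were stained in a one-step fixation (final 0.05% Triton X-100, 1% formaldehyde, 1 ug/ml Hoechst) and counted on 4× images, and relative viability is the treated-to-vehicle nuclei ratio, as the median of duplicate plates.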
# [2] = compound: CCN(CCO)CCCC(C)Nc1ccnc2cc(Cl)ccc12 [Hydroxychloroquine] + CCNC(=O)c1noc(-c2cc(C(C)C)c(O)cc2O)c1-c1ccc(CN2CCOCC2)cc1 [Luminespib] (partner 0.01 µM)
# Outline: as §1
# [3] = compound: CCN(CCO)CCCC(C)Nc1ccnc2cc(Cl)ccc12 [Hydroxychloroquine] + CS(=O)(=O)CCNCc1ccc(-c2ccc3ncnc(Nc4ccc(OCc5cccc(F)c5)c(Cl)c4)c3c2)o1 [Lapatinib] (partner 2 µM)
# Outline: as §1
# [4] = compound: CCN(CCO)CCCC(C)Nc1ccnc2cc(Cl)ccc12 [Hydroxychloroquine] + O=C(c1cc(Cc2n[nH]c(=O)c3ccccc23)ccc1F)N1CCN(C(=O)C2CC2)CC1 [Olaparib] (partner 8 µM)
# Outline: as §1
Cell Line,relative viability ([1]; first compound 0.5 µM),relative viability ([1]; first compound 1.581 µM),relative viability ([1]; first compound 5 µM),relative viability ([1]; first compound 15.81 µM),relative viability ([1]; first compound 50 µM),relative viability ([2]; first compound 0.5 µM),relative viability ([2]; first compound 1.581 µM),relative viability ([2]; first compound 5 µM),relative viability ([2]; first compound 15.81 µM),relative viability ([2]; first compound 50 µM),relative viability ([3]; first compound 0.5 µM),relative viability ([3]; first compound 1.581 µM),relative viability ([3]; first compound 5 µM),relative viability ([3]; first compound 15.81 µM),relative viability ([3]; first compound 50 µM),relative viability ([4]; first compound 0.5 µM),relative viability ([4]; first compound 1.581 µM),relative viability ([4]; first compound 5 µM),relative viability ([4]; first compound 15.81 µM),relative viability ([4]; first compound 50 µM)
NCI-H460,0.431,0.528,0.441,0.563,0.559,0.0311,0.0319,0.0298,0.0324,0.0362,1.03,1.05,0.778,1.55,1.5,0.409,0.431,0.387,0.479,0.334
NCI-H1793,0.542,0.466,0.42,0.412,0.259,0.357,0.197,0.16,0.15,0.194,0.57,0.556,0.649,0.603,0.691,0.866,0.814,0.878,0.906,0.728
NCI-H23,0.321,0.294,0.288,0.288,0.305,0.23,0.218,0.22,0.215,0.216,1.08,0.915,0.957,1.22,1.1,0.365,0.36,0.322,0.309,0.204
HARA,0.492,0.539,0.524,0.534,0.519,1.15,1.09,0.789,0.542,1.01,0.712,0.731,0.597,0.765,0.635,0.64,0.838,1.04,1.14,0.487
NCI-H1792,0.56,0.521,0.563,0.461,0.583,0.434,0.503,0.472,0.698,0.442,0.889,0.923,0.831,0.793,0.93,0.461,0.413,0.195,0.439,0.433
NCI-H1703,–,–,–,–,–,–,–,–,–,–,0.959,–,1.05,1.29,0.763,0.424,0.431,0.556,0.467,0.446
NCI-H2342,0.774,0.765,0.782,0.756,0.769,0.606,0.668,0.706,0.69,0.809,–,–,–,–,–,0.434,0.386,0.42,0.421,0.509
CAL-12T,–,–,–,–,–,0.286,0.319,0.363,0.511,0.373,0.752,–,0.659,0.633,0.691,0.693,0.63,0.782,0.689,0.68
NCI-H838,0.472,0.458,0.437,0.429,0.452,0.318,0.304,0.333,0.295,0.268,1.07,1.02,1.03,0.923,1.12,0.783,0.801,0.804,0.803,0.809
NCI-H2085,0.623,0.507,0.604,0.606,0.578,0.612,0.44,0.447,0.416,0.413,0.83,0.666,0.832,0.742,0.873,0.74,0.769,0.817,0.739,0.774
NCI-H1395,0.665,0.68,0.741,0.763,0.704,0.655,0.785,0.722,0.886,0.483,1.25,1.09,0.907,0.877,0.955,0.46,0.467,0.471,0.512,0.423
NCI-H1648,0.51,0.447,0.512,0.518,0.484,–,–,–,–,–,–,–,–,–,–,0.766,0.965,1.01,1.06,0.926
NCI-H520,0.532,0.549,0.513,0.491,0.526,0.236,0.226,0.217,0.184,0.209,0.934,0.898,0.857,0.958,0.978,0.344,0.354,0.304,0.337,0.364
A549,0.264,0.208,0.267,0.196,0.391,–,–,–,–,–,0.976,0.859,0.906,0.974,0.977,0.332,0.297,0.355,0.323,0.371
IA-LM,–,–,–,–,–,–,–,–,–,–,0.863,1.09,0.862,0.869,0.795,0.756,0.887,0.8,0.892,0.754
EKVX,0.346,0.308,0.334,0.407,0.372,0.894,0.887,0.836,0.836,0.865,0.246,0.181,0.224,0.168,0.199,0.978,0.755,0.769,0.763,1.04
ChaGo-K-1,0.515,0.545,0.538,0.496,0.518,0.615,0.626,0.55,0.594,0.643,–,–,–,–,–,0.385,0.381,0.422,0.4,0.422
NCI-H1755,0.707,0.644,0.727,0.694,0.656,0.489,0.403,0.517,0.354,0.432,1.06,0.875,1.02,1,1.02,0.861,0.841,0.841,0.912,0.827
NCI-H2228,–,–,–,–,–,0.24,0.122,0.162,0.185,0.112,1.05,0.999,0.972,0.705,1.18,0.716,0.75,0.575,0.653,0.623

# Source: the supplement of paper PMC10307832
